Data: ChEMBL document CHEMBL1201862, “PubChem BioAssay data set” (2004)
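Interpolation was linear, between the two tested concentrations surrounding the appropriate level; five concentrations were tested over 48 hours in 96-well plates. GI50: concentration for 50% inhibition of growth.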 The source made the active and inactive calls. Rule as the data show it: active = GI50 up to about 1.1 µM and inactive = higher.

Key:
Assay in all cases: NCI-60 cell line screen, 48 h
[1] = system: MOLT-4
[2] = system: OVCAR-8
[3] = system: K562
[4] = system: OVCAR-5
[5] = system: RPMI-8226
[6] = system: A549
[7] = system: U-251
[8] = system: CCRF-CEM
[9] = system: A498
[10] = system: UACC-62
[11] = system: SNB-19
[12] = system: LOX IMVI
[13] = system: MDA-N
[14] = system: Malme-3M
[15] = system: CAKI-1
[16] = system: UO-31
[17] = system: ACHN
[18] = system: NCI-H522
[19] = system: HOP-92
[20] = system: DU-145
[21] = system: NCI-H23
[22] = system: HCC 2998
[23] = system: SNB-75
[24] = system: UACC-257
[25] = system: T47D
[26] = system: HOP-62
[27] = system: NCI/ADR-RES
[28] = system: SF-539
[29] = system: OVCAR-3
[30] = system: NCI-H226
[31] = system: SK-OV-3
[32] = system: KM12
[33] = system: COLO 205
[34] = system: SK-MEL-28
[35] = system: IGROV-1
[36] = system: EKVX
[37] = system: M14
[38] = system: MDA-MB-435
[39] = system: SF-295
[40] = system: MCF7
[41] = system: HCT-116
[42] = system: 786-0
[43] = system: OVCAR-4
[44] = system: RXF 393
[45] = system: SW-620
[46] = system: SN12C
[47] = system: HCT-15
[48] = system: SK-MEL-5
[49] = system: HL-60
[50] = system: PC-3
[51] = system: TK-10
[52] = system: SK-MEL-2
[53] = system: HT-29
[54] = system: MDA-MB-231
[55] = system: NCI-H460
[56] = system: Hs-578T
[57] = system: SR
[58] = system: SF-268

Cc1ccc(Nc2nc(N)nc3c2ncn3C2OC(CO)C(O)C2O)cc1 (centres undefined)
GI50 [1]: > 100 µM (inactive) | GI50 [2]: > 100 µM (inactive) | GI50 [3]: > 100 µM (inactive) | GI50 [4]: > 100 µM (inactive) | GI50 [5]: > 100 µM (inactive) | GI50 [6]: > 100 µM (inactive) | GI50 [7]: > 100 µM (inactive) | GI50 [8]: > 100 µM (inactive) | GI50 [9]: > 100 µM (inactive) | GI50 [10]: > 100 µM (inactive) | GI50 [11]: > 100 µM (inactive) | GI50 [12]: > 100 µM (inactive) | GI50 [13]: > 100 µM (inactive) | GI50 [14]: > 100 µM (inactive) | GI50 [15]: > 100 µM (inactive) | GI50 [16]: > 100 µM (inactive) | GI50 [17]: > 100 µM (inactive) | GI50 [18]: > 100 µM (inactive) | GI50 [19]: > 100 µM (inactive) | GI50 [20]: > 100 µM (inactive) | GI50 [21]: > 100 µM (inactive) | GI50 [22]: > 100 µM (inactive) | GI50 [23]: > 100 µM (inactive) | GI50 [24]: > 100 µM (inactive) | GI50 [25]: > 100 µM (inactive) | GI50 [26]: > 100 µM (inactive) | GI50 [27]: > 100 µM (inactive) | GI50 [28]: > 100 µM (inactive) | GI50 [29]: > 100 µM (inactive) | GI50 [30]: > 100 µM (inactive) | GI50 [31]: > 100 µM (inactive) | GI50 [32]: > 100 µM (inactive) | GI50 [33]: > 100 µM (inactive) | GI50 [34]: > 100 µM (inactive) | GI50 [35]: > 100 µM (inactive) | GI50 [36]: > 100 µM (inactive) | GI50 [37]: > 100 µM (inactive) | GI50 [38]: > 100 µM (inactive) | GI50 [39]: > 100 µM (inactive) | GI50 [40]: > 100 µM (inactive) | GI50 [41]: > 100 µM (inactive) | GI50 [42]: > 100 µM (inactive) | GI50 [43]: > 100 µM (inactive) | GI50 [44]: > 100 µM (inactive) | GI50 [45]: > 100 µM (inactive) | GI50 [46]: > 100 µM (inactive) | GI50 [47]: > 100 µM | GI50 [48]: > 100 µM (inactive) | GI50 [49]: > 100 µM (inactive) | GI50 [50]: > 100 µM (inactive) | GI50 [51]: > 100 µM (inactive) | GI50 [52]: > 100 µM (inactive) | GI50 [53]: > 100 µM (inactive) | GI50 [54]: 98.9 µM (inactive)

COC1C(O)C(C)OC(O[C@H]2CC[C@@]3(C)C(CC[C@@H]4[C@@H]3CC[C@]3(C)[C@@H](C(C)OC5OC(CO)C(O)C(O)C5O)CC[C@]43O)C2)C1O (some centres undefined)
GI50 [1]: > 25 µM (inactive) | GI50 [2]: > 25 µM (inactive) | GI50 [3]: > 25 µM (inactive) | GI50 [4]: > 25 µM (inactive) | GI50 [5]: > 25 µM (inactive) | GI50 [55]: > 25 µM (inactive) | GI50 [6]: > 25 µM (inactive) | GI50 [7]: > 25 µM (inactive) | GI50 [8]: > 25 µM (inactive) | GI50 [9]: > 25 µM (inactive) | GI50 [10]: > 25 µM (inactive) | GI50 [11]: > 25 µM (inactive) | GI50 [12]: > 25 µM (inactive) | GI50 [13]: > 25 µM (inactive) | GI50 [15]: > 25 µM (inactive) | GI50 [16]: > 25 µM (inactive) | GI50 [17]: > 25 µM (inactive) | GI50 [18]: > 25 µM (inactive) | GI50 [19]: > 25 µM (inactive) | GI50 [21]: > 25 µM (inactive) | GI50 [22]: > 25 µM (inactive) | GI50 [23]: > 25 µM (inactive) | GI50 [24]: > 25 µM (inactive) | GI50 [26]: > 25 µM (inactive) | GI50 [27]: > 25 µM (inactive) | GI50 [56]: > 25 µM (inactive) | GI50 [28]: > 25 µM (inactive) | GI50 [29]: > 25 µM (inactive) | GI50 [30]: > 25 µM (inactive) | GI50 [31]: > 25 µM (inactive) | GI50 [32]: > 25 µM (inactive) | GI50 [57]: > 25 µM (inactive) | GI50 [34]: > 25 µM (inactive) | GI50 [35]: > 25 µM (inactive) | GI50 [36]: > 25 µM (inactive) | GI50 [37]: > 25 µM (inactive) | GI50 [38]: > 25 µM (inactive) | GI50 [39]: > 25 µM (inactive) | GI50 [40]: > 25 µM (inactive) | GI50 [41]: > 25 µM (inactive) | GI50 [58]: > 25 µM (inactive) | GI50 [42]: > 25 µM (inactive) | GI50 [43]: > 25 µM (inactive) | GI50 [45]: > 25 µM (inactive) | GI50 [46]: > 25 µM (inactive) | GI50 [47]: > 25 µM | GI50 [48]: > 25 µM (inactive) | GI50 [49]: > 25 µM (inactive) | GI50 [50]: > 25 µM (inactive) | GI50 [51]: > 25 µM (inactive) | GI50 [52]: > 25 µM (inactive) | GI50 [53]: > 25 µM (inactive) | GI50 [54]: > 25 µM (inactive)

Cc1cccc(C)c1NC(=S)N/C=C(\C#N)C(N)=O
GI50 [1]: > 100 µM (inactive) | GI50 [2]: > 100 µM (inactive) | GI50 [3]: > 100 µM (inactive) | GI50 [4]: > 100 µM (inactive) | GI50 [5]: > 100 µM (inactive) | GI50 [55]: > 100 µM (inactive) | GI50 [6]: > 100 µM (inactive) | GI50 [7]: > 100 µM (inactive) | GI50 [8]: > 100 µM (inactive) | GI50 [10]: > 100 µM (inactive) | GI50 [11]: > 100 µM (inactive) | GI50 [12]: > 100 µM (inactive) | GI50 [13]: > 100 µM (inactive) | GI50 [14]: > 100 µM (inactive) | GI50 [15]: > 100 µM (inactive) | GI50 [16]: > 100 µM (inactive) | GI50 [17]: > 100 µM (inactive) | GI50 [18]: > 100 µM (inactive) | GI50 [19]: > 100 µM (inactive) | GI50 [20]: > 100 µM (inactive) | GI50 [21]: > 100 µM (inactive) | GI50 [24]: > 100 µM (inactive) | GI50 [26]: > 100 µM (inactive) | GI50 [27]: > 100 µM (inactive) | GI50 [56]: > 100 µM (inactive) | GI50 [28]: > 100 µM (inactive) | GI50 [29]: > 100 µM (inactive) | GI50 [30]: > 100 µM (inactive) | GI50 [31]: > 100 µM (inactive) | GI50 [32]: > 100 µM (inactive) | GI50 [33]: > 100 µM (inactive) | GI50 [34]: > 100 µM (inactive) | GI50 [35]: > 100 µM (inactive) | GI50 [36]: > 100 µM (inactive) | GI50 [37]: > 100 µM (inactive) | GI50 [38]: > 100 µM (inactive) | GI50 [39]: > 100 µM (inactive) | GI50 [40]: > 100 µM (inactive) | GI50 [41]: > 100 µM (inactive) | GI50 [58]: > 100 µM (inactive) | GI50 [42]: > 100 µM (inactive) | GI50 [43]: > 100 µM (inactive) | GI50 [44]: > 100 µM (inactive) | GI50 [45]: > 100 µM (inactive) | GI50 [46]: > 100 µM (inactive) | GI50 [47]: > 100 µM | GI50 [48]: > 100 µM (inactive) | GI50 [50]: > 100 µM (inactive) | GI50 [51]: > 100 µM (inactive) | GI50 [52]: > 100 µM (inactive) | GI50 [53]: > 100 µM (inactive) | GI50 [54]: > 100 µM (inactive)
